From patent publication EP0447703A1, “Hetero polycyclic biocidal compounds, their synthesis and intermediates therefor,formulations containing them and their use in medicine” (THE WELLCOME FOUNDATION LIMITED, priority 1990, dated 1991)
Where a name gives a salt, the structure may show the parent alone.

Key:
[1] = LD20 determined in the P388/0 test; type: in vivo
Experimental: (§1) CD2-F₁ mice, of the same sex weighing within 20+3g, are used for this test. Control and test animals are injected intraperitoneally with a suspension of 10⁶ viable P388/O tumour cells on day 0. In each test several dose levels which bracket the LD₂₀ for the compound are evaluated; each dose level group contains 6 animals. The test compounds are prepared either in physiologic saline containing 0.05% Tween 80 or distilled water containing 5% dextrose and are administered intraperitoneally on days, 1, 5, and 9 relative to tumor implant. Doses are on a mg/kg basis according to individual animals' body weights. the day of death for each animal is recorded, the median identified for each group and the ratios of median survival time for treated (T)/control (C) groups are calculated. The criterion for activity is T/C x 100 ≧120%.

P388/O tumour cells = assay: Lymphocytic Leukemia P388/0 Test; type: in vivo, CD2-F₁ mice; settings: for 30-Day Survivors: at optimal dose, survivors per 6 animals of the dose group; for % T/C*: ratio of median survival time treated/control x 100 at optimal dose, excluding 30 day survivors, criterion for activity T/C x 100 ≧120%
Source text: Methods for evaluating the antitumor activity of these compounds are essentially those used in the Tumour Panel by the Development Therapeutics Program, Division of Cancer Treatment, National Cancer Institute, A. Goldin et al., Methods in Cancer Research, Vol. XVI, p.165, Academic Press (1979). Some modifications, in dose level and schedule have been made to increase the testing efficiency.
as §1

[2] = mice, intraperitoneally on days 1, 5 and 9

SMILES | LD20 [1, 2] | 30-Day Survivors (P388/O tumour cells) | % T/C* (P388/O tumour cells) | LD20 ([1]; mouse, in vivo, ip)
Cl.Cn1cc(CNC(C)(CO)CO)c2ccc3oc4ccccc4c3c21 [Example 13E, 2-Methyl-2-(((1-methyl-1H-benzofuro[2,3-g]indole-3-yl)methyl)amino)-1,3-propanediol Hydrochloride] | 115 mg/kg | 0/6 | 120% | 
CC(CO)(CO)NCc1ccc2oc3cc4ccoc4cc3c2c1.Cl [Example 8H, 2(((Benzofuro(5,6-b)benzofuran-8-yl)methyl)amino)-2-methyl-1,3-propanediol Hydrochloride] | 300 mg/kg | 0/6 | 200% | 
CC(CO)(CO)NCc1ccc2c(c1)oc1ccc3occc3c12.Cl [Example 4M, 2(((Benzofuro(5,4-b)benzofuran-8-yl)methyl)amino)-2-methyl-1,3-propanediol Hydrochloride] | >450 mg/kg | 0/6 | 117% | 
Cl.Cn1cc(CNC(C)(CO)CO)c2ccc3sc4ccccc4c3c21 [Example 11E, 2-Methyl-2-(((1-methyl-1H-[1]benzothieno[2,3]indol-3-yl)methyl)amino)-1,3-propanediol Hydrochloride] | 250 mg/kg | 0/6 | 135% | 
CC(CO)(CO)NCc1c2ccoc2cc2c1oc1ccccc12.Cl [Example 9E, 2-(((Benzofuro(5,6-b)benzofuran-4-yl)methyl)amino)-2-methyl 1,3-propanediol Hydrochloride] | 75 mg/kg | 0/6 | 192% | 
Cn1c2cccc(CNC(C)(CO)CO)c2c2sc3ccccc3c21 [Example 15D, 2-(((10-Methyl-10H-[1]benzothieno[3,2-b]indol-6-yl)methyl)amino)-2-methyl-1,3-propanediol Hydrochloride] |  | 5/6 | 140% | 225 mg/kg
CC(CO)(CO)NCc1cc2cc3oc4ccccc4c3cc2o1.Cl [Example 10B, 2-(((Benzofuro(5,6-b)benzofuran-2-yl)methyl)amino)-2-methyl-1,3-propanediol Hydrochloride] | >675 mg/kg | 0/6 | 100% | 
Cl.Cn1c2ccccc2c2oc3c(CNC(C)(CO)CO)cccc3c21 [Example 1E, 2-Methyl-2-(((10-methyl-10H-benzofuro(3,2-b)indol-6-yl)methyl)amino)-1,3-propanediol Hydrochloride] | 150 mg/kg | 0/6 | 210% | 
Cn1c2ccccc2c2cc(CNC(C)(CO)CO)c3sccc3c21 [Example 2C, 2-Methyl-2-(((10-methyl-10H-thieno(3,2-a)carbazol-4-yl)methyl)amino)-1,3-propanediol methanesulfonate] |  | 0/6 | 195% | 375 mg/kg
Cn1c2ccccc2c2ccc3sc(CNC(C)(CO)CO)cc3c21 [Example 3B, 2-Methyl-2-(((10-methyl-10H-thieno(3,2-a)carbazol-2-yl)methyl)amino)-1,3-propanediol methanesulfonate] |  | 0/6 | 195% | 375 mg/kg
CCn1c2ccccc2c2c3c(ccc21)c(CNC(C)(CO)CO)cn3C [Example 12C, 2-(((6-Ethyl-1,6-dihydro-1-methylpyrrolo[3,2-c]carbazol-3-yl)methyl)-amino)-2-methyl-1,3-propanediol Hydrochloride 0.6 H₂O] |  | 0/6 | 113% | 100 mg/kg
Cn1c2ccccc2c2sc3cc(CNC(C)(CO)CO)ccc3c21 [Example 16, 2-(((10-Methyl-10H-[1]benzothieno[3,2-b]indol-3-yl)methyl)amino)-2-methyl-1,3-propanediol hydrochloride] |  | 0/6 | 170% | 250 mg/kg
CC(CO)(CO)NCc1cc2oc3ccccc3c2c2ccoc12.Cl [Example 6E, 2-(((Benzofuro(5,4-b)benzofuran-4-yl)methyl)amino)-2-methyl-1,3-propanediol Hydrochloride] | 60 mg/kg | 1/6 | 213% | 
CC(CO)(CO)NCc1cc2c(ccc3oc4ccccc4c32)o1.Cl [Example 7B, 2-(((Benzofuro(5,4-b)benzofuran-2-yl)methyl)amino)-2-methyl-1,3-propanediol hydrochloride] | 175 mg/kg | 0/6 | 138% | 
Cl.Cn1cc(CNC(C)(CO)CO)c2c3sc4ccccc4c3ccc21 [Example 14B, 2-Methyl-2-(((3-methyl-3H-[1]benzothieno[2,3-e]indol-1-yl)methyl)amino)-1,3-propanediol Hydrochloride] | 150 mg/kg | 0/6 | 215% | 
CC(CO)(CO)NCc1ccc2oc3ccc4occc4c3c2c1.Cl [Example 5E, 2-(((Benzofuro(5,4-b)benzofuran-9-yl)methyl)amino)-2-methyl-1,3-propanediol Hydrochloride] | 175 mg/kg | 0/6 | 117% | 
